Values of other authors in patent publication US8017153B2, “Dietary supplement composition for blood lipid health” (U.S. Nutraceuticals, LLC, priority 2006, dated 2011).

Settings: Human studies

[^3H]-octacosanol
total radioactivity excreted in the feces: 81-91%
total radioactivity found in urine: 1.2%
